Assays:
Format in all cases: in vivo
[1] = tested on: Dermatophagoides pteronyssinus; assay: Residual activity against Dermatophagoides pteronyssinus (treated filter paper, Biological Test Example 2); settings: 24 h, 0.8 g/m^2 on filter paper, mites put on seven days after treatment, mortality after one day
Description: A piece of filter paper (diameter: 4 cm) was impregnated uniformly with an acetone solution of the compound sample so that the amount of the compound was 0.8 g/m^2 after being air-dried. After seven days, approximately twenty heads of mites (Dermatophagoides pteronyssinus) were put on the surface of the treated filter paper. An adhesive substance was applied on the circumference of the filter paper for preventing escape. After one day, the mortality was examined.

[2] = tested on: Dermatophagoides pteronyssinus; assay: Activity against Dermatophagoides pteronyssinus (treated filter paper, Biological Test Example 1); settings: 24 h, 0.8 g/m^2 on filter paper, after one day
Description: (§1) A piece of filter paper (diameter: 4 cm) was impregnated uniformly with an acetone solution of the present compound so that the amount of the impregnated compound was 0.8 g/m^2 after being air-dried. Approximately twenty heads of mites (Tyrophagus putrescentiae, Dermatophagoides farinae Hughes and Dermatophagoides pteronyssinuis) were put on the surface of the treated filter paper. An adhesive substance was applied on the circumference of the filter paper for preventing escape. After one day, the mortality was examined. The results for Tyrophagus putrescentiae, Dermatophagoides farinae Hughes and Dermatophagoides pteronyssinus are shown in Table 3, Table 4, and Table 5, respectively.

[3] = tested on: Tyrophagus putrescentiae; assay: Fumigating activity against Tyrophagus putrescentiae (heated porous ceramic plate in peat grady chamber, Biological Test Example 3); settings: 24 h, 55 mg/m^3, ceramic plate heated at 175° C., after twenty-four hours
Description: A piece of filter paper (diameter: 4 cm) was placed in an aluminum plate and an adhesive substance was applied on the circumference of the filter paper for preventing escape. Fifty to a hundred heads of mites (Tyrophagus putrescentiae) were put with little feed on the filter paper. Three sets of such filter paper with mites were placed on three corners (approximately 30 cm from the wall) in a floor of a peat grady chamber (1.8 m ×1.8 m ×1.8 m). A porous ceramic plate (4 cm ×4 cm ×1.2 cm) impregnated with an acetone solution of the present compound (concentration: 55 mg/m^3) was heated at 175° C. with an electric heater placed on the center of the floor of the chamber. After twenty-four hours, the mortality was examined.

[4] = tested on: Dermatophagoides farinae Hughes; assay: Activity against Dermatophagoides farinae Hughes (treated filter paper, Biological Test Example 1); settings: 24 h, 0.8 g/m^2 on filter paper, after one day
Description: as §1

[5] = tested on: Tyrophagus putrescentiae; assay: Activity against Tyrophagus putrescentiae (treated filter paper, Biological Test Example 1); settings: 24 h, 0.8 g/m^2 on filter paper, after one day
Description: as §1

SMILES | mortality at 0.8 g/m2 [1] | mortality at 0.8 g/m2 [2] | mortality at 55 mg/m3 [3] | mortality at 0.8 g/m2 [4] | mortality at 0.8 g/m2 [5]
C#CC(=O)OCCCCCc1ccccc1 [Compound 1, 5-phenylpentyl propiolate] | 95% | 100% | 76% | 100% | 100%
C#CC(=O)OCCCCCCc1ccccc1 [Compound 2, 6-phenylhexyl propiolate] | 100% | 100% | 73% | 100% | 100%
C#CC(=O)OCCCCCCCc1ccccc1 [Compound 3, 7-phenylheptyl propiolate] | 100% | 100% | 96% | 100% | 100%
C#CC(=O)OCCCCCCCCc1ccccc1 [Compound 4] | 100% | 100% |  | 100% | 100%
C#CC(=O)OCCCCCCCCCc1ccccc1 [Compound 5] | 100% | 100% |  | 100% | 100%
C#CC(=O)OCCCOc1ccccc1 [Compound 6] | 100% | 100% |  | 100% | 100%
C#CC(=O)OCCCCOc1ccccc1 [Compound 7] | 100% | 100% |  | 100% | 100%
C#CC(=O)OCCCCCOc1ccccc1 [Compound 8] | 100% | 100% |  | 100% | 100%
C#CC(=O)OCCCOc1ccc(C)cc1C [Compound 9] | 100% | 100% |  | 100% | 100%
C#CC(=O)OCCCCOc1ccccc1C [Compound 10, 4-(2-methylphenoxy)butyl propiolate] | 100% | 100% |  | 100% | 100%
C#CC(=O)OCCCCOc1ccc(C)cc1 [Compound 11, 4-(4-methylphenoxy)butyl propiolate] | 100% | 100% | 79% | 100% | 100%
C#CC(=O)OCCCCOc1ccc(C)cc1C [Compound 12] | 100% | 100% |  | 100% | 100%
C#CC(=O)OCCCCOc1c(C)cccc1C [Compound 13] | 92% | 100% |  | 100% | 100%
C#CC(=O)OCCCCCOc1c(C)cccc1C [Compound 14] | 100% | 100% |  | 100% | 100%
C#CC(=O)OCCCCOc1c(C(C)C)cccc1C(C)C [Compound 15] | 95% | 100% |  | 100% | 100%
C#CC(=O)OCCOCc1ccccc1 [Compound 16, 2-benzyloxyethyl propiolate] | 83% | 100% |  | 100% | 100%
C#CC(=O)OCCCOCc1ccccc1 [Compound 17] | 100% | 100% |  | 100% | 100%
C#CC(=O)OCCOCc1ccc(C)cc1 [Compound 18] | 100% | 100% |  | 100% | 100%
C#CC(=O)OCCCCCCOc1ccccc1 [Compound 19] | 100% |  |  | 100% | 100%
C#CC(=O)OCCCOc1ccc(CC)cc1 [Compound 20] | 100% |  |  | 100% | 100%
C#CC(=O)OCCCCCOc1ccc(C)cc1 [Compound 21] | 100% |  |  | 100% | 100%
C#CC(=O)OCCCCOc1ccc(CC)cc1 [Compound 22] | 100% |  |  | 100% | 96%
C#CC(=O)OCC(C)COc1ccccc1 (centres unmarked) [Compound 23] | 100% |  |  | 100% | 100%
C#CC(=O)OCC(C)COc1ccc(C)cc1 (centres unmarked) [Compound 24] | 100% |  |  | 100% | 100%
C#CC(=O)OCCC(C)COc1ccccc1 (centres unmarked) [Compound 25] | 100% |  |  | 100% | 100%
C#CC(=O)OCCC(C)COc1ccc(C)cc1 (centres unmarked) [Compound 26] | 94% |  |  | 96% | 100%
C#CC(=O)OCCCOc1c(C)cccc1C [Compound 27] | 100% |  |  | 86% | 100%
C#CC(=O)OCCOCc1ccc(CC)cc1 [Compound 28] | 97% |  |  | 100% | 100%
C#CC(=O)OCC(C)OCc1ccccc1 (centres unmarked) [Compound 29] | 82% |  |  | 100% | 100%
O=C(Oc1ccccc1)c1ccccc1O [Phenyl salicylate, reference compound] |  |  | 28% |  | 

Reference: patent publication US5502242A, “Propiolate ester compound an acaricide containing the same as an active ingredient and an acaricidal method” (Sumitomo Chemical Company, Limited, priority 1993, dated 1996)
